Results published in patent US10449257B2, “Self-assembled composite ultrasmall peptide-polymer hydrogels” (Agency for Science, Technology and Research, priority 2011, dated 2019).
Where “and” joins values, the source holds several entries; their conditions need not be identical. Equal values may be shown once. Where a SMILES comes first, the peptide text is derived from it. Where no end group is shown, it is not given here.

Assays:
plasmid DNA = assay: Composite peptide-DNA hydrogels: DNA loading, encapsulation and release; assay type: physicochemical; conditions: for amount of DNA that can be incorporated into the composite hydrogel: plasmid DNA loading
Protocol: Various peptides (AcLD6, i.e. Ac-LIVAGD, SEQ ID NO: 65; AcLK6, i.e. Ac-LIVAGK, SEQ ID NO: 66; AcLS6, i.e. Ac-LIVAGS, SEQ ID NO: 67) were used to encapsulate plasmid DNA, forming composite peptide-DNA hydrogels (A). […] When the composite hydrogels were incubated with DNAse, digested DNA fragments were not observed, compared to the naked DNA control. […] Potential applications include synthetic cell culture substrates that mediate sustained DNA, mRNA, siRNA and short hairpin RNA delivery (C).
The peptide sequence (particularly the polar head group) and concentration plays a significant role in determining the maximum amount of DNA that can be incorporated into the composite hydrogel.
Even after 10 days, at least 80% of the DNA loaded remained in composite hydrogel. In particular, the Ac-LIVAGK (L)-DNA hydrogel retained 95% of the DNA added. The release of the nucleic acid can potentially be modulated by the peptide composition.

[1] = tested on: human derived adipose stem cells; assay: Subcutaneous implantation of hydrogels seeded with human derived adipose stem cells; assay type: in vivo; conditions: nude mice, after 45 days
Text: FIG. 16. In vivo scaffold for adipose tissue regeneration Fat pad observed under the skeletal muscle layer in the region of the human adipose stem cell (hASC) implant 45 days post-implantation (A-C). The transplanted cells have the appearance of normal mature adipose tissue (D)—adipocytes with dark nuclei at edge, cells filled with fat.

[2] = Pilot study with 4 mice (10 days): blood cell counts after hydrogel implant; assay type: in vivo; conditions: 30 μL gel implant
Text: There were no behavioral changes or weight loss following implantation for up to 2 months, and there was no significant difference in red or white blood cell counts or blood chemistry (liver and kidney function) between mice implanted with hydrogels and sham operated mice.

[3] = Peptide stability studies (TGA, 1H-NMR, HPLC-MS after UV or autoclave treatment); assay type: physicochemical; conditions: for decomposition by 1H-NMR: UV treated (2 h, 254 nm) or autoclaved (30 min, 120° C.); for degradation by HPLC-MS: following UV and autoclave treatment
[4] = SCID mice, listed as Ac-LIVAGK (L) gel

Compound	encapsulating and trapping of plasmid DNA (plasmid DNA; composite peptide-DNA hydrogel)	release of the DNA (plasmid DNA; over the course of several days)	amount of DNA that can be incorporated into the composite hydrogel (plasmid DNA)	adipose tissue formation under the implant site [1]	erythrocytes [2, 4]	lymphocytes [2, 4]	monocytes [2, 4]	thrombocytes [2, 4]	basophils ([2]; normal mouse) [K/uL]	eosinophils ([2]; normal mouse) [K/uL]	erythrocytes ([2]; normal mouse) [M/uL]	lymphocytes ([2]; normal mouse) [K/uL]	monocytes ([2]; normal mouse) [K/uL]	neutrophils ([2]; normal mouse) [K/uL]	thrombocytes ([2]; normal mouse) [M/uL]	decomposition by 1H-NMR [3]	degradation by HPLC-MS [3]
CC[C@H](C)[C@H](NC(=O)[C@H](CC(C)C)NC(C)=O)C(=O)N[C@H](C(=O)N[C@@H](C)C(=O)NCC(=O)N[C@@H](CCCCN)C(=O)O)C(C)C [AcLK6, Ac-LIVAGK] (Ac-LIVAGK-OH)	extremely efficient in encapsulating and trapping the DNA	minimal release of the DNA	could integrate the highest concentration of DNA	formation of fat pads	9.29 M/uL and 11.33 M/uL	0.88 K/uL and 0.9 K/uL	0.22 K/uL and 0.12 K/uL	0.607 M/uL and 0.978 M/uL	0.02	0.11	10.65	3.76	0.42	1.6	0.833		
Ac-IVD (Ac-Ile-Val-Asp) [AcID3]																do not decompose	minimal
Ac-LIVAGD [AcLD6]			lowest threshold for DNA loading													do not decompose	minimal
